{"source": "paper PMC11882969", "about": "(Nature Communications, 2025)", "target": "hCB1 (Homo sapiens, UniProt P21554)", "sequence (P21554 whole entry)": "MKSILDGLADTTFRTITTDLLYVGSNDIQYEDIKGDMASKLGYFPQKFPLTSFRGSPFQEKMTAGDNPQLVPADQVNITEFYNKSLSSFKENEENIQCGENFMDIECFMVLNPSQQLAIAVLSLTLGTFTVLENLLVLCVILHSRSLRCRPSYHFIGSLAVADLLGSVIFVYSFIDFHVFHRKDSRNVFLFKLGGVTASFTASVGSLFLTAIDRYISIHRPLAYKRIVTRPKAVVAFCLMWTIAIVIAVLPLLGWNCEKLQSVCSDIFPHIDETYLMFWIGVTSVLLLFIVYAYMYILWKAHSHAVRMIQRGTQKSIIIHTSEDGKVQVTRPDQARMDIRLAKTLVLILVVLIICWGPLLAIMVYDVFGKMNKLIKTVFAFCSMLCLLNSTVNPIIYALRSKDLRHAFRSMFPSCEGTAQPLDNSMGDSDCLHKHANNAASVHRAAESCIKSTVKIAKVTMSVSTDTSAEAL", "assay": "bioSensAll ebBRET signaling profiling, hCB1", "format": "cell-based", "parameters": "host or cells: HEK293SL cells, transient PEI transfection", "conditions": "for RE, relative efficacy: vs CP-55,940; for EC50: read-out: EC50 [95% CI]; for Emax: normalized to CP-55,940", "note": "Values joined by “and” are separate entries in the source; they are usually repeats but may differ in a detail not shown here. Equal entries are not always repeated. Where two headings read alike, the source gives them in different places."}
{"compound": "COC(=O)[C@@](C)(NC(=O)c1cc(C)n(-c2cccc(C(F)(F)F)c2)n1)c1cccs1", "note": "[‘1350]", "values": [{"measurement": "Gq hCB1", "setting": "Log [Compound] (M) -7.55284", "result": 1106}, {"measurement": "Gs hCB1", "setting": "Log [Compound] (M) -7.55284", "result": 6295}, {"measurement": "Gz hCB1", "setting": "Log [Compound] (M) -7.55284", "result": "88.7355 and 97.954"}, {"measurement": "G13 hCB1", "setting": "Log [Compound] (M) -8", "result": "59.5674 and 29.7847"}, {"measurement": "G15 hCB1", "setting": "Log [Compound] (M) -8", "result": "98.7928 and 95.555"}, {"measurement": "Gi1 hCB1", "setting": "Log [Compound] (M) -8", "result": "85.5759 and 80.7558 and 94.7595"}, {"measurement": "Gi2 hCB1", "setting": "Log [Compound] (M) -8", "result": "103.924 and 86.4729"}, {"measurement": "GoB hCB1", "setting": "Log [Compound] (M) -8", "result": "93.1096 and 93.0515 and 90.8837"}, {"measurement": "Gq hCB1", "setting": "Log [Compound] (M) -8", "result": 998}, {"measurement": "Gs hCB1", "setting": "Log [Compound] (M) -8", "result": 6325}, {"measurement": "Gz hCB1", "setting": "Log [Compound] (M) -8", "result": "81.7172 and 92.9121"}, {"measurement": "Barr2+GRK2 hCB1", "setting": "Log [Compound] (M) -8.22186", "result": "55.5534 and 36.0388 and 57.0671"}, {"measurement": "G13 hCB1", "setting": "Log [Compound] (M) -8.22186", "result": "68.4414 and 35.9312"}, {"measurement": "G15 hCB1", "setting": "Log [Compound] (M) -8.22186", "result": "108.751 and 98.1326"}, {"measurement": "Gi1 hCB1", "setting": "Log [Compound] (M) -8.22186", "result": "92.6788 and 89.3236 and 99.6444"}, {"measurement": "Gi2 hCB1", "setting": "Log [Compound] (M) -8.22186", "result": "103.598 and 95.5013"}, {"measurement": "GoB hCB1", "setting": "Log [Compound] (M) -8.22186", "result": "98.7737 and 93.6765"}, {"measurement": "Gq hCB1", "setting": "Log [Compound] (M) -8.22186", "result": 1076}, {"measurement": "Gs hCB1", "setting": "Log [Compound] (M) -8.22186", "result": 6277}, {"measurement": "Gz hCB1", "setting": "Log [Compound] (M) -8.22186", "result": "86.1167 and 125.84"}, {"measurement": "Barr2+GRK2 hCB1", "setting": "Log [Compound] (M) -8.39794", "result": "29.9976 and 37.6342 and 37.3728"}, {"measurement": "G15 hCB1", "setting": "Log [Compound] (M) -8.39794", "result": "102.447 and 90.505"}, {"measurement": "Gi1 hCB1", "setting": "Log [Compound] (M) -8.39794", "result": "89.9355 and 81.3893 and 90.8265"}, {"measurement": "Gi2 hCB1", "setting": "Log [Compound] (M) -8.39794", "result": "93.2678 and 81.238"}, {"measurement": "GoB hCB1", "setting": "Log [Compound] (M) -8.39794", "result": "91.7888 and 85.5166 and 90.3229"}, {"measurement": "Gq hCB1", "setting": "Log [Compound] (M) -8.39794", "result": 1079}, {"measurement": "Gs hCB1", "setting": "Log [Compound] (M) -8.39794", "result": 6774}, {"measurement": "Gz hCB1", "setting": "Log [Compound] (M) -8.39794", "result": "90.3591 and 90.0229"}, {"measurement": "G13 hCB1", "setting": "Log [Compound] (M) -8.68787", "result": "53.1584 and 35.4081"}, {"measurement": "G15 hCB1", "setting": "Log [Compound] (M) -8.68787", "result": "102.996 and 87.3488"}, {"measurement": "Gi1 hCB1", "setting": "Log [Compound] (M) -8.68787", "result": "91.5518 and 80.8983 and 96.1797"}, {"measurement": "Gi2 hCB1", "setting": "Log [Compound] (M) -8.68787", "result": "100.616 and 73.0934"}, {"measurement": "GoB hCB1", "setting": "Log [Compound] (M) -8.68787", "result": "87.9026 and 94.3015 and 102.463"}, {"measurement": "Gq hCB1", "setting": "Log [Compound] (M) -8.68787", "result": 1093}, {"measurement": "Gs hCB1", "setting": "Log [Compound] (M) -8.68787", "result": 6188}, {"measurement": "Gz hCB1", "setting": "Log [Compound] (M) -8.68787", "result": "71.525 and 105.899"}, {"measurement": "G13 hCB1", "setting": "Log [Compound] (M) -9.15521", "result": "29.8642 and 17.8839"}, {"measurement": "G15 hCB1", "setting": "Log [Compound] (M) -9.15521", "result": "73.5984 and 77.2225"}, {"measurement": "Gi1 hCB1", "setting": "Log [Compound] (M) -9.15521", "result": "81.1718 and 69.1157 and 80.6507"}, {"measurement": "Gi2 hCB1", "setting": "Log [Compound] (M) -9.15521", "result": "77.4138 and 61.2639"}, {"measurement": "GoB hCB1", "setting": "Log [Compound] (M) -9.15521", "result": "71.2656 and 63.2418 and 86.0488"}, {"measurement": "Gq hCB1", "setting": "Log [Compound] (M) -9.15521", "result": 979}, {"measurement": "Gs hCB1", "setting": "Log [Compound] (M) -9.15521", "result": 6053}, {"measurement": "Gz hCB1", "setting": "Log [Compound] (M) -9.15521", "result": "50.0303 and 83.0974"}, {"measurement": "G15 hCB1", "setting": "Log [Compound] (M) -9.61989", "result": "46.4936 and 49.8683"}, {"measurement": "Gi1 hCB1", "setting": "Log [Compound] (M) -9.61989", "result": "46.5026 and 32.8966 and 52.9951"}, {"measurement": "Gi2 hCB1", "setting": "Log [Compound] (M) -9.61989", "result": "46.1296 and 39.0463"}, {"measurement": "GoB hCB1", "setting": "Log [Compound] (M) -9.61989", "result": "41.2683 and 36.2447 and 42.156"}, {"measurement": "Gq hCB1", "setting": "Log [Compound] (M) -9.61989", "result": 993}, {"measurement": "Gs hCB1", "setting": "Log [Compound] (M) -9.61989", "result": 6331}, {"measurement": "G15 hCB1", "setting": "Log [Compound] (M) -10.0969", "result": "22.2784 and 20.2785"}, {"measurement": "Gi2 hCB1", "setting": "Log [Compound] (M) -10.0969", "result": "20.3201 and 12.6408"}, {"measurement": "GoB hCB1", "setting": "Log [Compound] (M) -10.0969", "result": "15.6017 and 12.0427 and 18.9365"}, {"measurement": "Gq hCB1", "setting": "Log [Compound] (M) -10.0969", "result": 1040}, {"measurement": "Gs hCB1", "setting": "Log [Compound] (M) -10.0969", "result": 6351}, {"measurement": "G15 hCB1", "setting": "Log [Compound] (M) -10.5529", "result": "10.1469 and 8.811"}, {"measurement": "Gq hCB1", "setting": "Log [Compound] (M) -10.5529", "result": 1032}, {"measurement": "Gs hCB1", "setting": "Log [Compound] (M) -10.5529", "result": 6578}, {"measurement": "Gq hCB1", "setting": "Log [Compound] (M) -11.0177", "result": 1054}, {"measurement": "Gs hCB1", "setting": "Log [Compound] (M) -11.0177", "result": 6308}, {"measurement": "Gq hCB1", "setting": "Log [Compound] (M) -11.4949", "result": 1050}, {"measurement": "Gs hCB1", "setting": "Log [Compound] (M) -11.4949", "result": 6446}, {"measurement": "Gq hCB1", "setting": "Log [Compound] (M) -11.9208", "result": 1129}, {"measurement": "Gs hCB1", "setting": "Log [Compound] (M) -11.9208", "result": 6648}, {"measurement": "Gq hCB1", "setting": "Log [Compound] (M) -12.3979", "result": 1059}, {"measurement": "Gs hCB1", "setting": "Log [Compound] (M) -12.3979", "result": 6648}, {"measurement": "Gq hCB1", "setting": "Log [Compound] (M) -12.8861", "result": 1070}, {"measurement": "Gs hCB1", "setting": "Log [Compound] (M) -12.8861", "result": 6918}, {"measurement": "pEC50 [95% CI]", "setting": "hCB1 G13", "result": "9.08 [8.6 – 9.6]"}, {"measurement": "RE, relative efficacy", "setting": "hCB1 G13", "result": 1.64}, {"measurement": "RE, relative efficacy", "setting": "hCB1 G15", "result": 1.14}, {"measurement": "pEC50 [95% CI]", "setting": "hCB1 Gi1", "result": "9.63 [9.5 – 9.7]"}, {"measurement": "RE, relative efficacy", "setting": "hCB1 Gi1", "result": 1.98}, {"measurement": "RE, relative efficacy", "setting": "hCB1 Gi2", "result": 1.89}, {"measurement": "RE, relative efficacy", "setting": "hCB1 GoB", "result": 2.24}, {"measurement": "RE, relative efficacy", "setting": "hCB1 Gz", "result": 0.77}, {"measurement": "RE, relative efficacy", "setting": "hCB1 ßarr2+GRK2", "result": 1.16}, {"measurement": "EC50", "setting": "hCB1 Barr2 + GRK2", "result": 2.2, "unit": "nM"}, {"measurement": "EC50", "setting": "hCB1 G13", "result": 0.83, "unit": "nM"}, {"measurement": "EC50", "setting": "hCB1 G15", "result": 0.22, "unit": "nM"}, {"measurement": "EC50", "setting": "hCB1 Gi1", "result": 0.23, "unit": "nM"}, {"measurement": "EC50", "setting": "hCB1 Gi2", "result": 0.28, "unit": "nM"}, {"measurement": "EC50", "setting": "hCB1 GoB", "result": 0.29, "unit": "nM"}, {"measurement": "EC50", "setting": "hCB1 Gz", "result": 0.35, "unit": "nM"}, {"measurement": "Emax", "setting": "read-out: Emax [95% CI], hCB1 Barr2 + GRK2", "result": 63, "unit": "%"}, {"measurement": "Emax", "setting": "read-out: Emax [95% CI], hCB1 G13", "result": 56, "unit": "%"}, {"measurement": "Emax", "setting": "read-out: Emax [95% CI], hCB1 G15", "result": 99, "unit": "%"}, {"measurement": "Emax", "setting": "read-out: Emax [95% CI], hCB1 Gi1", "result": 92, "unit": "%"}, {"measurement": "Emax", "setting": "read-out: Emax [95% CI], hCB1 Gi2", "result": 95, "unit": "%"}, {"measurement": "Emax", "setting": "read-out: Emax [95% CI], hCB1 GoB", "result": 98, "unit": "%"}, {"measurement": "Emax", "setting": "read-out: Emax [95% CI], hCB1 Gz", "result": 94, "unit": "%"}]}
